Experimental data published in patent publication US8957078B2, “Compounds useful as inhibitors of ATR kinase” (Vertex Pharmaceuticals Incorporated, priority 2013, dated 2015).

How the values were obtained:
[1] = target: T1, ATR kinase (full-length ATR) (Homo sapiens, UniProt Q13535); test: ATR Inhibition Assay (radioactive-phosphate incorporation); type: biochemical; conditions: Ki(app); 5 nM full-length ATR, 10 μM ATP, 800 μM target peptide, 25° C.
T1 construct: in the presence of 5 nM full-length ATR
Description: Compounds were screened for their ability to inhibit ATR kinase using a radioactive-phosphate incorporation assay. Assays were carried out in a mixture of 50 mM Tris/HCl (pH 7.5), 10 mM MgCl2 and 1 mM DTT. Final substrate concentrations were 10 μM [γ-33P]ATP (3 mCi 33P ATP/mmol ATP, Perkin Elmer) and 800 μM target peptide (ASELPASQPQPFSAKKK (SEQ. ID NO: 1)).
Assays were carried out at 25° C. in the presence of 5 nM full-length ATR. An assay stock buffer solution was prepared containing all of the reagents listed above, with the exception of ATP and the test compound of interest. 13.5 μL of the stock solution was placed in a 96 well plate followed by addition of 2 μL of DMSO stock containing serial dilutions of the test compound (typically starting from a final concentration of 15 μM with 3-fold serial dilutions) in duplicate (final DMSO concentration 7%). The plate was pre-incubated for 10 minutes at 25° C. and the reaction initiated by addition of 15 μL [γ-33P]ATP (final concentration 10 μM).
The reaction was stopped after […] by the addition of 30 μL 0.1M phosphoric acid containing 2 mM ATP. A multiscreen phosphocellulose filter 96-well plate (Millipore, Cat no. MAPHN0B50) was pretreated with 100 μL 0.2M phosphoric acid prior to the addition of 45 μL of the stopped assay mixture. The plate was washed with 5×200 μL 0.2M phosphoric acid. After drying, 100 μL Optiphase ‘SuperMix’ liquid scintillation cocktail (Perkin Elmer) was added to the well prior to scintillation counting (1450 Microbeta Liquid Scintillation Counter, Wallac).
After removing mean background values for all of the data points, Ki(app) data were calculated from non-linear regression analysis of the initial rate data using the Prism software package (GraphPad Prism version 3.0cx for Macintosh, GraphPad Software, San Diego Calif., USA).

[2] = test system: HCT116 colorectal cancer cells; test: Cisplatin Sensitization Assay (96 h cell viability MTS); type: cell-based; conditions: concentration of compound required to reduce the IC50 of Cisplatin alone by at least 3-fold; HCT116, 96 h MTS
Description: Compounds can be screened for their ability to sensitize HCT116 colorectal cancer cells to Cisplatin using a 96 h cell viability (MTS) assay. […] Compounds and Cisplatin are then both added simultaneously to the cell media in 2-fold serial dilutions from a top final concentration of 10 μM as a full matrix of concentrations in a final cell volume of 200 μl, and the cells are then incubated at 37° C. in 5% CO2. After 96 h, 40 μl of MTS reagent (Promega G358a) is added to each well and the cells are incubated for 1 h at 37° C. in 5% CO2. Finally, absorbance is measured at 490 nm using a SpectraMax Plus 384 reader (Molecular Devices) and the concentration of compound required to reduce the IC50 of Cisplatin alone by at least 3-fold (to 1 decimal place) can be reported.

T1 sequence (Q13535 whole entry): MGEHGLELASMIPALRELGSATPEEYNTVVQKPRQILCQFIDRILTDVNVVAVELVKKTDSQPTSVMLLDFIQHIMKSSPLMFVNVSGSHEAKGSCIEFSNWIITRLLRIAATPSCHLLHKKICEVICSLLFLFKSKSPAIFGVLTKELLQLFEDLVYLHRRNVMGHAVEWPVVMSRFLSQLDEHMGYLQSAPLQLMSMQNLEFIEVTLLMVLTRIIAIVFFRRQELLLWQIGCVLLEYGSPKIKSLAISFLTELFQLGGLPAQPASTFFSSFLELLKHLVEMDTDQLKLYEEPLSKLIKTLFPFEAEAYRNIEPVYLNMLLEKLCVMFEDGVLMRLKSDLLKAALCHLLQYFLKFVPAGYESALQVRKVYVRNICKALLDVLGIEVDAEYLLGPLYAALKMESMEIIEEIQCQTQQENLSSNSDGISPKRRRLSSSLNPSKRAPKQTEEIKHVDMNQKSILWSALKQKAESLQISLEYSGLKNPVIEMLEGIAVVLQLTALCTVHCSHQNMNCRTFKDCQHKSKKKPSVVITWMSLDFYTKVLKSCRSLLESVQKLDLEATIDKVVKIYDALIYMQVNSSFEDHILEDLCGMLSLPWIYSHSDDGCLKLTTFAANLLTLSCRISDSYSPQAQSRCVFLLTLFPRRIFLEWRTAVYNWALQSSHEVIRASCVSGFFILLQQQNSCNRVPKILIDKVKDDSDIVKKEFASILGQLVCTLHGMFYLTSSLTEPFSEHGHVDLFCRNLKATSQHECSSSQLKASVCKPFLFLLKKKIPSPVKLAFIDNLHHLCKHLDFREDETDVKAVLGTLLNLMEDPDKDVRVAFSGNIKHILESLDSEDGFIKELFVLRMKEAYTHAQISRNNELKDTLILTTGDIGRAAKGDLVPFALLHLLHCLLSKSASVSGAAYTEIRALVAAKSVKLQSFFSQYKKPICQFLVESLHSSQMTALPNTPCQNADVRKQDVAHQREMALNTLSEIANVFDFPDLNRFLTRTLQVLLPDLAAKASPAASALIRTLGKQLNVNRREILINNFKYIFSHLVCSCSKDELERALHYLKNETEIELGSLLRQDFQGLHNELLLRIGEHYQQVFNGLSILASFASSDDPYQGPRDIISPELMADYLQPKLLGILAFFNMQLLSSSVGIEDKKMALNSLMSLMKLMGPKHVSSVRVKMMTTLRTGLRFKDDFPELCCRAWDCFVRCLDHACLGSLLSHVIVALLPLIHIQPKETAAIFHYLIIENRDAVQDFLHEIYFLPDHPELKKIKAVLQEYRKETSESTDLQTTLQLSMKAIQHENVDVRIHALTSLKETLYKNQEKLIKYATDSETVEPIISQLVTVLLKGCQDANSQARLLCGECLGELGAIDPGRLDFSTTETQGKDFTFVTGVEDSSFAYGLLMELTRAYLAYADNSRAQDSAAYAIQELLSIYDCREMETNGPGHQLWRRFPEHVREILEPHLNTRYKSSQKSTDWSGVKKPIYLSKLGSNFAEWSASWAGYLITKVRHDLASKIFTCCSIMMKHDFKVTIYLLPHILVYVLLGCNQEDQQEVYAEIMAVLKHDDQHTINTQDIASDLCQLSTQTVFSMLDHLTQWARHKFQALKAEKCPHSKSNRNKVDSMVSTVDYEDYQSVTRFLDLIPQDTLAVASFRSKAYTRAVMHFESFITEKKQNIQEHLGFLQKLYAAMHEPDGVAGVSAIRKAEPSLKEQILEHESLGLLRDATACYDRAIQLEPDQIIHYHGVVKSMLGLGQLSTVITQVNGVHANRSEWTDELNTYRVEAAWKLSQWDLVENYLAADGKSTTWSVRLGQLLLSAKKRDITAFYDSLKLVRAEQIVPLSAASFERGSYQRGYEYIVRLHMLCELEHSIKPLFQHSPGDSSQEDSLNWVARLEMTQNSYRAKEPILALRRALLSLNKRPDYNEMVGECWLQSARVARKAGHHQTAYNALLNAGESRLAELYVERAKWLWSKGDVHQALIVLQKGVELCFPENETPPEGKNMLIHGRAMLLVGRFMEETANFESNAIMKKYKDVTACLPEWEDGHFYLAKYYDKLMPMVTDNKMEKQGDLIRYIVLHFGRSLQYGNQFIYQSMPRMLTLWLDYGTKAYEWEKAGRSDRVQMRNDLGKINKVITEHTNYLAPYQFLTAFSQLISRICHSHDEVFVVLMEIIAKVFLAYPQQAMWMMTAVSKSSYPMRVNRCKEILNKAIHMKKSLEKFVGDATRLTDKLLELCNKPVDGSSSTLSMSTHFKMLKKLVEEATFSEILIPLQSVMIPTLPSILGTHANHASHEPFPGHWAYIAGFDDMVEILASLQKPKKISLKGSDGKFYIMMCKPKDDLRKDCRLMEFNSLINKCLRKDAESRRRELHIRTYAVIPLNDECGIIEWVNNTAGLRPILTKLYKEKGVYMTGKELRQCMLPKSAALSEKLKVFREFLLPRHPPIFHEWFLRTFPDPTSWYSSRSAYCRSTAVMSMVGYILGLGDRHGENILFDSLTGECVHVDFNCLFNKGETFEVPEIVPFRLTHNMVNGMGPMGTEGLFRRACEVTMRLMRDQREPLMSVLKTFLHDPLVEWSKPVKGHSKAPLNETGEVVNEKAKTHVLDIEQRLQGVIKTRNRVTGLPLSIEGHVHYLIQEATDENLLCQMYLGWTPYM

SMILES | Ki [1] [nM] | Cisplatin Sensitization Assay [2]
Nc1nn2cc(F)cnc2c1C(=O)Nc1cnncc1N1CCC(C(=O)N2CC(F)(F)C2)CC1 [I-B-21, 2-amino-N-(5-(4-(3,3-difluoroazetidine-1-carbonyl)piperidin-1-yl)pyridazin-4-yl)-6-fluoropyrazolo[1,5-a]pyrimidine-3-carboxamide] | 10 to 1000 | +++ (Compounds with a Cisplatin sensitization value of <0.02 μM are marked with “+++.”)
COc1ncncc1NC(=O)c1c(N)nn2ccc(OCCN(C)C)nc12 [I-A-16, 2-amino-5-(2-(dimethylamino)ethoxy)-N-(4-methoxypyrimidin-5-yl)pyrazolo[1,5-a]pyrimidine-3-carboxamide] | 1000 to 5000 | + (Compounds with a Cisplatin sensitization value >0.2 μM but <5 μM are marked with “+.”)
Cc1nsc(NC(=O)c2c(N)nn3cc(F)cnc23)c1-c1cncnc1 [I-E-11, 2-amino-6-fluoro-N-(3-methyl-4-(pyrimidin-5-yl)isothiazol-5-yl)pyrazolo[1,5-a]pyrimidine-3-carboxamide] | 10 to 1000 | ++ (Compounds with a Cisplatin sensitization value >0.02 μM but <0.2 μM are marked with “++.”)
Cc1nsc(NC(=O)c2c(N)nn3cc(F)cnc23)c1-n1cccn1 [I-E-10, 2-amino-6-fluoro-N-(3-methyl-4-(1H-pyrazol-1-yl)isothiazol-5-yl)pyrazolo[1,5-a]pyrimidine-3-carboxamide] | < 10 | +++ (Compounds with a Cisplatin sensitization value of <0.02 μM are marked with “+++.”)
Nc1nn2cc(F)cnc2c1C(=O)Nc1cncn1-c1cccnc1 [I-D-5, 2-amino-6-fluoro-N-(1-(pyridin-3-yl)-1H-imidazol-5-yl)pyrazolo[1,5-a]pyrimidine-3-carboxamide] | 10 to 1000 | ++ (Compounds with a Cisplatin sensitization value >0.02 μM but <0.2 μM are marked with “++.”)
Cc1nsc(NC(=O)c2c(N)nn3cc(F)cnc23)c1C1CC1 [I-E-2, 2-amino-N-(4-cyclopropyl-3-methylisothiazol-5-yl)-6-fluoropyrazolo[1,5-a]pyrimidine-3-carboxamide] | 10 to 1000 | +++ (Compounds with a Cisplatin sensitization value of <0.02 μM are marked with “+++.”)
Nc1nn2cc(F)cnc2c1C(=O)Nc1cnncc1N1CCN(C2CCOCC2)CC1 [I-B-3, 2-amino-6-fluoro-N-(5-(4-(tetrahydro-2H-pyran-4-yl)piperazin-1-yl)pyridazin-4-yl)pyrazolo[1,5-a]pyrimidine-3-carboxamide] | 10 to 1000 | ++ (Compounds with a Cisplatin sensitization value >0.02 μM but <0.2 μM are marked with “++.”)
CN1CC[C@H](Oc2ncncc2NC(=O)c2c(N)nn3cc(F)cnc23)C1 [I-A-11, (S)-2-amino-6-fluoro-N-(4-((1-methylpyrrolidin-3-yl)oxy)pyrimidin-5-yl)pyrazolo[1,5-a]pyrimidine-3-carboxamide] | 1000 to 5000 | ++ (Compounds with a Cisplatin sensitization value >0.02 μM but <0.2 μM are marked with “++.”)
CN1CC[C@@H](Oc2ncncc2NC(=O)c2c(N)nn3cc(F)cnc23)C1 [I-A-10, (R)-2-amino-6-fluoro-N-(4-((1-methylpyrrolidin-3-yl)oxy)pyrimidin-5-yl)pyrazolo[1,5-a]pyrimidine-3-carboxamide] | 10 to 1000 | + (Compounds with a Cisplatin sensitization value >0.2 μM but <5 μM are marked with “+.”)
Nc1nn2cc(F)cnc2c1C(=O)Nc1cncnc1OC1CCN(C2COC2)CC1 [I-A-8, 2-amino-6-fluoro-N-(4-((1-(oxetan-3-yl)piperidin-4-yl)oxy)pyrimidin-5-yl)pyrazolo[1,5-a]pyrimidine-3-carboxamide] | 10 to 1000 | +++ (Compounds with a Cisplatin sensitization value of <0.02 μM are marked with “+++.”)
Cc1nn(C)cc1-c1c(C)nsc1NC(=O)c1c(N)nn2cc(F)cnc12 [I-E-18, 2-amino-N-(4-(1,3-dimethyl-1H-pyrazol-4-yl)-3-methylisothiazol-5-yl)-6-fluoropyrazolo[1,5-a]pyrimidine-3-carboxamide] | 10 to 1000 | +++ (Compounds with a Cisplatin sensitization value of <0.02 μM are marked with “+++.”)
Nc1nn2cc(Cl)cnc2c1C(=O)Nc1cncnc1OC1CCN(C2COC2)CC1 [I-A-9, 2-amino-6-chloro-N-(4-((1-(oxetan-3-yl)piperidin-4-yl)oxy)pyrimidin-5-yl)pyrazolo[1,5-a]pyrimidine-3-carboxamide] | 1000 to 5000 | + (Compounds with a Cisplatin sensitization value >0.2 μM but <5 μM are marked with “+.”)
Cc1ncccc1-c1c(C)nsc1NC(=O)c1c(N)nn2cc(F)cnc12 [I-E-1, 2-amino-6-fluoro-N-(3-methyl-4-(2-methylpyridin-3-yl)isothiazol-5-yl)pyrazolo[1,5-a]pyrimidine-3-carboxamide] | < 10 | +++ (Compounds with a Cisplatin sensitization value of <0.02 μM are marked with “+++.”)
Cc1nsc(NC(=O)c2c(N)nn3cc(F)cnc23)c1-c1ccccc1 [I-E-7, 2-amino-6-fluoro-N-(3-methyl-4-phenylisothiazol-5-yl)pyrazolo[1,5-a]pyrimidine-3-carboxamide] | < 10 | +++ (Compounds with a Cisplatin sensitization value of <0.02 μM are marked with “+++.”)
Cc1nsc(NC(=O)c2c(N)nn3cc(F)cnc23)c1CN1CCOCC1 [I-E-15, 2-amino-6-fluoro-N-(3-methyl-4-(morpholinomethyl)isothiazol-5-yl)pyrazolo[1,5-a]pyrimidine-3-carboxamide] | 10 to 1000 | +++ (Compounds with a Cisplatin sensitization value of <0.02 μM are marked with “+++.”)
Cn1cncc1-c1cnncc1NC(=O)c1c(N)nn2cc(F)cnc12 [I-B-15, 2-amino-6-fluoro-N-(5-(1-methyl-1H-imidazol-5-yl)pyridazin-4-yl)pyrazolo[1,5-a]pyrimidine-3-carboxamide] | 10 to 1000 | ++ (Compounds with a Cisplatin sensitization value >0.02 μM but <0.2 μM are marked with “++.”)
CC(C)Oc1ncncc1NC(=O)c1c(N)nn2ccc(OCCN(C)C)nc12 [I-A-15, 2-amino-5-(2-(dimethylamino)ethoxy)-N-(4-isopropoxypyrimidin-5-yl)pyrazolo[1,5-a]pyrimidine-3-carboxamide] | 1000 to 5000 | + (Compounds with a Cisplatin sensitization value >0.2 μM but <5 μM are marked with “+.”)
Nc1nn2cc(F)cnc2c1C(=O)Nc1cnncc1N1CCC(CN2CCC(F)(F)C2)CC1 [I-B-6, 2-amino-N-(5-(4-((3,3-difluoropyrrolidin-1-yl)methyl)piperidin-1-yl)pyridazin-4-yl)-6-fluoropyrazolo[1,5-a]pyrimidine-3-carboxamide] | 10 to 1000 | +++ (Compounds with a Cisplatin sensitization value of <0.02 μM are marked with “+++.”)
Nc1nn2cc(F)cnc2c1C(=O)Nc1ccncc1N1CCC(C(=O)N2CCN3CCC2CC3)CC1 [I-C-7, N-(3-(4-(1,4-diazabicyclo[3.2.2]nonane-4-carbonyl)piperidin-1-yl)pyridin-4-yl)-2-amino-6-fluoropyrazolo[1,5-a]pyrimidine-3-carboxamide] | 10 to 1000 | +++ (Compounds with a Cisplatin sensitization value of <0.02 μM are marked with “+++.”)
CS(=O)(=O)C1CCN(c2cnncc2NC(=O)c2c(N)nn3cc(F)cnc23)CC1 [I-B-23, 2-amino-6-fluoro-N-(5-(4-(methylsulfonyl)piperidin-1-yl)pyridazin-4-yl)pyrazolo[1,5-a]pyrimidine-3-carboxamide] | 10 to 1000 | ++ (Compounds with a Cisplatin sensitization value >0.02 μM but <0.2 μM are marked with “++.”)
CN1CCC[C@H](Oc2ncncc2NC(=O)c2c(N)nn3cc(F)cnc23)C1 [I-A-2, (S)-2-amino-6-fluoro-N-(4-((1-methylpiperidin-3-yl)oxy)pyrimidin-5-yl)pyrazolo[1,5-a]pyrimidine-3-carboxamide] | 10 to 1000 | + (Compounds with a Cisplatin sensitization value >0.2 μM but <5 μM are marked with “+.”)
